Test results published in ChEMBL document CHEMBL4665802, “Design, Synthesis, and Structure-Activity Relationships of Indoline-Based Kelch-like ECH-Associated Protein 1-Nuclear Factor (Erythroid-Derived 2)-Like 2 (Keap1-Nrf2) Protein-Protein Interaction Inhibitors” (J Med Chem, 2020).
Calls of active or inactive are those of the source. The calls are words filed in the database; no cut-off is given here.

Columns and labels:
H9c2 [1] = assay: Antiinflammatory activity against LPS-induced sepsis in rat H9c2 cells assessed as decrease in secretion of IL-6 at 1 to 10 uM pretreated for 12 hrs followed by LPS addition measured after 12 hrs by sandwich ELISA; type: functional, cell-based; conditions: dose microM 1-10, time 24.0 hrs
H9c2 [2] = assay: Antiinflammatory activity against LPS-induced sepsis in rat H9c2 cells assessed as decrease in secretion of IL-1beta at 1 to 10 uM pretreated for 12 hrs followed by LPS addition measured after 12 hrs by sandwich ELISA; type: functional, cell-based; conditions: dose microM 1-10, time 24.0 hrs
[3] = Half-life in rat at 5 mg/kg, iv by LC-MS/MS analysis; type: ADME, organism-based; conditions: in vivo
Mus musculus [4] = assay: Antioxidant activity against LPS-induced injury in C57BL/6 mouse assessed as increase in GSH/GSSG ratio at 10 mg/kg, ip qd administered for 3 days prior to LPS stimulation and measured after 12 hrs; type: functional, organism-based; conditions: dose mg/kg 10-40, time 3.5 day
[5] = Metabolic stability in human liver microsome assessed as half-life at 1 uM preincubated for 5 mins followed by NADPH addition and measured after 45 mins by LC-MS/MS analysis; type: ADME; conditions: liver microsomes
Mus musculus [6] = assay: Cardioprotective activity in LPS-stimulated sepsis in C57BL/6 mouse assessed as reduction in histological score at 10 mg/kg, ip qd administered for 3 days prior to LPS stimulation and measured after 12 hrs by hematoxylin and eosin staining based microscopy; type: functional, organism-based; conditions: time 3.5 day
[7] = MRT (0 to infinity) in rat at 5 mg/kg, iv by LC-MS/MS analysis; type: ADME, organism-based; conditions: in vivo
[8] = Apparent clearance in rat at 5 mg/kg, iv by LC-MS/MS analysis; type: ADME, organism-based; conditions: in vivo
[9] = molecular target: T1, KEAP1/NRF2 (Rattus norvegicus) (UniProt O54968+P57790); assay: Inhibition of Keap1-Nrf2 protein-protein interaction in rat H9c2 cells assessed as upregulation of GCLM mRNA expression incubated for 12 hrs by Trizol reagent based qRT-PCR analysis; type: cell-based; conditions: dose microM 0.1-10, time 12.0 hrs
H9c2 [10] = assay: Antioxidant activity against LPS-induced injury in rat H9c2 cells assessed as increase in GSH/GSSG ratio at 0.1 to 10 uM pretreated for 12 hrs followed by LPS addition measured after 12 hrs; type: functional, cell-based; conditions: dose microM 0.1-10, time 24.0 hrs
[11] = molecular target: T1, KEAP1/NRF2 (Rattus norvegicus); assay: Inhibition of Keap1-Nrf2 protein-protein interaction in rat H9c2 cells assessed as upregulation of NQO1 expression at 10 uM incubated up to 24 hrs by Western blot; type: cell-based; conditions: time hrs <=24
[12] = molecular target: T1, KEAP1/NRF2 (Rattus norvegicus); assay: Inhibition of Keap1-Nrf2 protein-protein interaction in rat H9c2 cells assessed as upregulation of HO1 expression at 10 uM incubated up to 24 hrs by Western blot; type: cell-based; conditions: time hrs <=24
[13] = molecular target: T1, KEAP1/NRF2 (Rattus norvegicus); assay: Inhibition of Keap1-Nrf2 protein-protein interaction in rat H9c2 cells assessed as upregulation of NQO1 mRNA expression incubated for 12 hrs by Trizol reagent based qRT-PCR analysis; type: cell-based; conditions: dose microM 0.1-10, time 12.0 hrs
Mus musculus [14] = assay: Antiinflammatory activity in LPS-stimulated sepsis in C57BL/6 mouse assessed as decrease in IL-1beta levels at 10 mg/kg, ip qd administered for 3 days prior to LPS stimulation and measured after 12 hrs by ELISA; type: functional, organism-based; conditions: time 3.5 day
[15] = AUC (0 to t) in rat at 5 mg/kg, iv by LC-MS/MS analysis; type: ADME, organism-based; set-up: dose 5 mg/kg; conditions: in vivo
[16] = molecular target: T1, KEAP1/NRF2 (Rattus norvegicus); assay: Inhibition of Keap1-Nrf2 protein-protein interaction in rat H9c2 cells assessed as upregulation of GCLM expression incubated for 12 hrs by Western blot analysis; type: cell-based; conditions: dose microM 0.1-10, time 12.0 hrs
[17] = molecular target: T1, KEAP1/NRF2 (Rattus norvegicus); assay: Inhibition of Keap1-Nrf2 protein-protein interaction in rat H9c2 cells assessed as upregulation of NQO1 expression incubated for 12 hrs by Western blot analysis; type: cell-based; conditions: dose microM 0.1-10, time 12.0 hrs
H9c2 [18] = assay: Upregulation of Nrf2 mRNA expression in rat H9c2 cells at 10 uM incubated for 4 to 24 hrs by Trizol reagent based qRT-PCR analysis; type: functional, cell-based; conditions: time hrs 4-24
[19] = molecular target: T1, KEAP1/NRF2 (Rattus norvegicus); assay: Inhibition of Keap1-Nrf2 protein-protein interaction in rat H9c2 cells assessed as upregulation of GCLM expression at 10 uM incubated up to 24 hrs by Western blot; type: cell-based; conditions: time hrs <=24
[20] = molecular target: T1, KEAP1/NRF2 (Rattus norvegicus); assay: Inhibition of Keap1-Nrf2 protein-protein interaction in rat H9c2 cells assessed as upregulation of HO1 expression incubated for 12 hrs by Western blot analysis; type: cell-based; conditions: dose microM 0.1-10, time 12.0 hrs
Mus musculus [21] = assay: Upregulation of NQO1 expression in LPS-stimulated C57BL/6 mouse model of sepsis at 10 to 40 mg/kg, ip qd administered for 3 days prior to LPS stimulation and measured after 12 hrs by Western blot analysis; type: functional, organism-based; conditions: dose mg/kg 10-40, time 3.5 day
Mus musculus [22] = assay: Antiinflammatory activity in LPS-stimulated sepsis in C57BL/6 mouse assessed as decrease in TNFalpha levels at 10 mg/kg, ip qd administered for 3 days prior to LPS stimulation and measured after 12 hrs by ELISA; type: functional, organism-based; conditions: time 3.5 day
[23] = Metabolic stability in human liver microsome assessed as parent compound remaining at 1 uM preincubated for 5 mins followed by NADPH addition and measured after 45 mins by LC-MS/MS analysis; type: ADME; conditions: liver microsomes, time 50 min, read-out: Stabilty
[24] = molecular target: T1, KEAP1/NRF2 (Rattus norvegicus); assay: Inhibition of Keap1-Nrf2 protein-protein interaction in rat H9c2 cells assessed as upregulation of GCLM mRNA expression at 10 uM incubated for 4 to 24 hrs by Trizol reagent based qRT-PCR analysis; type: cell-based; conditions: time hrs 4-24
Mus musculus [25] = assay: Antioxidant activity against LPS-induced injury in C57BL/6 mouse assessed as reduction in ROS levels at 10 to 40 mg/kg, ip qd administered for 3 days prior to LPS stimulation and measured after 12 hrs by H2DCFDA probe based flow cytometry; type: functional, organism-based; conditions: dose mg/kg 10-40, time 3.5 day

half-life [3]: 4.02 h
half-life at 1 µM [5]: 2.52 h
MRT inf [7]: 1.1 h
clearance [8]: 1.83 mL/min/kg
inhibition [9]: Dose-dependent effect
inhibition [11]: Active
inhibition [12]: Active
inhibition [13]: Dose-dependent effect
AUC(0-t) [15]: 47000 ng·h/mL
inhibition [16]: Dose-dependent effect
inhibition [17]: Dose-dependent effect
inhibition [19]: Active
inhibition [20]: Dose-dependent effect
remaining at 0.75 h, 1 µM [23]: 74.4%
inhibition [24]: Active
Structure (SMILES): COc1ccc(S(=O)(=O)NC(=O)CN(c2cccc3c2CCN3C(C(=O)NS(=O)(=O)c2ccc(C)cc2OC)c2cccc(OC)c2)S(=O)(=O)c2ccc(OC)cc2)cc1 (stereo not given)
Activity (H9c2 [1]): Active
Activity (H9c2 [2]): Active
Activity (Mus musculus [4]): Active
Activity (Mus musculus [6]): Active
Activity (H9c2 [10]): Active
Activity (Mus musculus [14]): Active
Activity (H9c2 [18]): Active
Activity (Mus musculus [21]): Active
Activity (Mus musculus [22]): Active
Activity (Mus musculus [25]): Active
